Reference: patent publication US10640514B2, “Polymorph of DPPIV inhibitor maleate and preparation method therefor” (SHANGHAI INSTITUTE OF MATERIA MEDICA, CHINESE ACADEMY OF …, priority 2016, dated 2020)

Assays:
normal ICR mice = test: Oral glucose tolerance in normal ICR mice; format: in vivo
ICR mice = test: Acute toxicity test of ICR mice; format: in vivo; details: 300 mg/kg administration group
ob/ob mice = test: Fasting blood glucose of ob/ob mice, chronic administration; format: in vivo
db/db mice = test: Fasting blood glucose of gene-deficient db/db mice, chronic administration; format: in vivo
DPP IV [1] = target: DPP IV (Homo sapiens, UniProt P27487); test: DPP IV inhibitory activity and selectivity in vitro; format: biochemical
DPP IV (Homo sapiens, UniProt P27487), sequence (P27487 whole entry, species assumed): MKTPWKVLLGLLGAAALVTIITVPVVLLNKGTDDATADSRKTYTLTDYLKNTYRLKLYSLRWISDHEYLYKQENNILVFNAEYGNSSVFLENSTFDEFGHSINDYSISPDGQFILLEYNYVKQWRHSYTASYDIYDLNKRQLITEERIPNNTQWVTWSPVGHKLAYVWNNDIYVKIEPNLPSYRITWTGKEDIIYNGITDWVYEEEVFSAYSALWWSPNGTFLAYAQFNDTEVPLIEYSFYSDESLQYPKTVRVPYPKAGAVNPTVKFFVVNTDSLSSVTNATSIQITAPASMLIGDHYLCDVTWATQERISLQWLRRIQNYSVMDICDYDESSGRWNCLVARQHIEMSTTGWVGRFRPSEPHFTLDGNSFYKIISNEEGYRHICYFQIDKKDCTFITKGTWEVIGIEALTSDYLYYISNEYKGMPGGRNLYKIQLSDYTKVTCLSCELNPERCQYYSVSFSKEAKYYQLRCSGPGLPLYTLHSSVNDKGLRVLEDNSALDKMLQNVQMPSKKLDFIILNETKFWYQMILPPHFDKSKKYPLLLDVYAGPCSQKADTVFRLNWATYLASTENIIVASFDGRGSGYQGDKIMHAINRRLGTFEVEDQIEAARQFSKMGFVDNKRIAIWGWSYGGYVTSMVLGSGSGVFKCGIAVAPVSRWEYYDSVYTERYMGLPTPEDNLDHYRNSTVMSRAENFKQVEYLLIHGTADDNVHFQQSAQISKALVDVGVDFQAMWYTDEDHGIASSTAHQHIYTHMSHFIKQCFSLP

Pharmacokinetics in dogs = format: in vivo
DPP IV [2] = target: T1, DPP IV (Mus musculus, UniProt P28843); test: Inhibition of DPP IV activity in normal mouse plasma; format: in vivo
T1 construct: from tissue; host or cells: normal mouse plasma
T1 sequence (P28843 37-760 limits assumed): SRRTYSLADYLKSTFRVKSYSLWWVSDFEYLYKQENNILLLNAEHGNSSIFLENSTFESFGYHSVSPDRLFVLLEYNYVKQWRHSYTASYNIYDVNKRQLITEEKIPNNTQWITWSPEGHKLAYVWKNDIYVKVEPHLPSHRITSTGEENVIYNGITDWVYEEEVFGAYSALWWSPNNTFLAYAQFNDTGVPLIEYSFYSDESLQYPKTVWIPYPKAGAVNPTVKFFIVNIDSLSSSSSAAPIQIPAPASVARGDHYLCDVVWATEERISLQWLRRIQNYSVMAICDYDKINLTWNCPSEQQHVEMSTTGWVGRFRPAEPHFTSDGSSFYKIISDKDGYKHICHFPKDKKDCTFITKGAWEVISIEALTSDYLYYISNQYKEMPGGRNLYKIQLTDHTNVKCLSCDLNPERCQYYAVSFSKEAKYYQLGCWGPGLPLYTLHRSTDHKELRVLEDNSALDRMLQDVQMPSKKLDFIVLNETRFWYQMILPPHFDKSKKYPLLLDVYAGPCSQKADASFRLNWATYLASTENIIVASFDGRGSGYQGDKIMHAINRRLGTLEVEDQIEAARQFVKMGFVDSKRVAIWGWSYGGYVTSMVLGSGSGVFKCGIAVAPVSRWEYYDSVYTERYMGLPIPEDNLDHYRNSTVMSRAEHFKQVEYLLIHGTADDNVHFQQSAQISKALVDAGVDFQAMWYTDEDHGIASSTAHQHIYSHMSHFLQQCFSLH

DPP IV [3] = target: T2, DPP IV (Rattus norvegicus, UniProt P14740); test: Inhibition of DPP IV activity in normal rat plasma; format: in vivo
T2 construct: from tissue; host or cells: normal rat plasma
T2 sequence (P14740 37-767 limits assumed): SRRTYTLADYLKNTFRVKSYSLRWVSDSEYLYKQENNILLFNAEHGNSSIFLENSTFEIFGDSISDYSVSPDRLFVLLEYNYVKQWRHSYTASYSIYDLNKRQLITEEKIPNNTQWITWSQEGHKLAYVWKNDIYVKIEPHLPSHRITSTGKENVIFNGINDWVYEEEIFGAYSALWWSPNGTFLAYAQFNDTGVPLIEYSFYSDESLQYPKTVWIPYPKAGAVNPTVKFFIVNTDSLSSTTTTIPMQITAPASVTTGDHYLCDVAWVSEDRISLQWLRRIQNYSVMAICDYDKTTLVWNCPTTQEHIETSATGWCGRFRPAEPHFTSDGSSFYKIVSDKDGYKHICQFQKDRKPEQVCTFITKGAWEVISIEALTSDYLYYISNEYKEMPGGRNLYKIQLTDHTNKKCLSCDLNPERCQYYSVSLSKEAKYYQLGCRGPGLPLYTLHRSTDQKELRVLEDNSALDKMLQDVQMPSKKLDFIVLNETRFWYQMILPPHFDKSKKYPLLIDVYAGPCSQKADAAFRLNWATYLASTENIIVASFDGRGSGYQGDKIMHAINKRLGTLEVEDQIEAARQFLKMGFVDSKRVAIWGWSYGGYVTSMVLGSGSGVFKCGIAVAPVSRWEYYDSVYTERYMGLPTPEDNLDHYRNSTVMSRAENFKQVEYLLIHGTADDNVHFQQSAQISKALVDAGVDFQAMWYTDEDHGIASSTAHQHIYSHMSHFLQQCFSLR

Pharmacokinetics in rats = format: in vivo
[4] = Hygroscopicity analysis (DVS); format: physicochemical; details: range of conventional storage humidity, 25° C.
Protocol: Dynamic vapor absorption (DVS) test/water absorption test rapidly measures the increase and loss of the moisture in the sample caused by flow carrier gas with set relative humidity (RH), wherein the sample is placed on a digital microbalance with high sensitivity and high stability at a self-suspension state, and then the adsorption/desorption of water vapor is measured by measuring the increase/decrease of mass of the material, thereby determining the hygroscopicity of the sample.
In the present invention, the test parameters of the DVS are as follows: Instrument type: SMS DVS Intrinsic; Non-hydrate: 0 to 95%-0% RH; Temperature: 25° C.; Hydrate: 40 to 95%-0% RH; Temperature: 25° C.

[5] = versus sitagliptin and vildagliptin

## COC(=O)c1cc2nc(N3CCC[C@@H](N)C3)n(Cc3ccccc3C#N)c(=O)c2s1 [compound of formula I, (R)-methyl-2-(3-aminopiperidin-1-yl)-3-(2-cyanobenzyl)-4-carbonyl-3,4-dihydrothiophene[3,2-d]pyrimidine-6-carboxylic acid]
Normal ICR mice
  effect on oral glucose tolerance compared with alogliptin: superior to that of alogliptin
  onset dose for increase of oral glucose tolerance: 0.1 mg/kg
Normal ICR mice; dose-dependent manner
  oral glucose tolerance: increase oral glucose tolerance
ICR mice
  animal death in acute toxicity test: no animal dies
ob/ob mice
  fasting blood glucose: effectively reduce fasting blood glucose
  fasting blood glucose reduction compared with alogliptin: superior to positive control drug alogliptin
db/db mice
  fasting blood glucose: reduce its fasting blood glucose
  fasting blood glucose reduction compared with alogliptin: comparable to positive control drug alogliptin
DPP IV [1]
  mode of DPP IV inhibition: selective, reversible competitive inhibitor
DPP IV [1]; in vitro
  DPP IV inhibitory activity: nanomolar level
DPP IV [1]; [5]
  DPP IV inhibitory activity in vitro compared with marketed drugs: superior to the marketed drugs sitagliptin and vildagliptin
  DPP IV selectivity in vitro compared with marketed drugs: superior to the marketed drugs sitagliptin and vildagliptin
Pharmacokinetics in dogs
  AUC0-t compared with alogliptin: superior to those of the marketed drug alogliptin
  half-life compared with alogliptin: superior to those of the marketed drug alogliptin
DPP IV [2]
  inhibition of DPP IV activity in plasma: effective in inhibiting DPP IV activity
  plasma DPP IV inhibitory activity compared with alogliptin: superior to the marketed drug alogliptin
DPP IV [3]
  inhibition of DPP IV activity in plasma: effective in inhibiting DPP IV activity
  plasma DPP IV inhibitory activity compared with alogliptin: superior to the marketed drug alogliptin
Pharmacokinetics in rats
  AUC0-t compared with alogliptin: superior to those of the marketed drug alogliptin
  half-life compared with alogliptin: superior to those of the marketed drug alogliptin

## COC(=O)c1cc2nc(N3CCC[C@@H](N)C3)n(Cc3ccccc3C#N)c(=O)c2s1.O=C(O)/C=C\C(=O)O [crystal form A, (R)-methyl-2-(3-aminopiperidin-1-yl)-3-(2-cyanobenzyl)-4-carbonyl-3,4-dihydrothiophene[3,2-d]pyrimidine-6-carboxylic acid maleate]
[4]
  hygroscopicity, variation range (DVS): less than 2.0%
